Measured values from US20250127800A1, “PYRIMIDINE OR PYRIDINE DERIVATIVE AND MEDICINAL USE THEREOF” (SIGNET THERAPEUTICS INC., priority 2021, published 2025).
Like-named read-outs stand apart in the source and are kept apart here.

Tests used:
[1] = In vivo pharmacokinetic evaluation in SD rats, gavage; conditions: rat, plasma, po, male SD rats
Experimental: Three male SD rats were administered with compounds in a single dose of 5 mg/kg or 3 mg/kg by gavage, and blood samples were collected before administration and at 0.25, 0.5, 1, 2, 4, 6, 8, and 24 h after administration.
Preparation of solutions of compounds to be dosed at 5 mg/kg: 5.5 mg compound (converted based on purity) was accurately weighed and added to 0.55 mL of DMSO. Clear solutions were obtained after stirring and sonication. 0.5 mL of each of the above solutions was added with 1 mL of Solutol, stirred for 1 minute; and then added with 8.5 mL of physiological saline and stirred for 1 minute, to obtain a clear solution at 0.5 mg/mL concentration.
Preparation of a solution of compounds to be dosed at 3 mg/kg: 3.6 mg compound (converted according to purity) was accurately weighed and added to 0.6 mL of DMSO. Clear solutions were obtained after stirring and sonication. 0.5 mL of each of the above solutions was added with 1 mL of Solutol and stirred for 1 minute; and then added with 8.5 mL of physiological saline and stirred for 1 minute, to obtain a clear solution at 0.3 mg/mL concentration.
Rats were administered the formulations prepared in step 2 by gavage at a dose of 10 mL/kg. The rats were fasted overnight before the administration and resumed feeding 4 hours after administration. Throughout the entire experiment, the animals were free to access drinking water.
The plasma concentration was measured using LC-MS/MS method.

FAK = FAK (Homo sapiens (Human), UniProt Q05397); experiment: In vitro enzymatic inhibitory activity, FAK kinase (HTRF KinEASE-TK)
FAK, sequence (Q05397 whole entry, species assumed): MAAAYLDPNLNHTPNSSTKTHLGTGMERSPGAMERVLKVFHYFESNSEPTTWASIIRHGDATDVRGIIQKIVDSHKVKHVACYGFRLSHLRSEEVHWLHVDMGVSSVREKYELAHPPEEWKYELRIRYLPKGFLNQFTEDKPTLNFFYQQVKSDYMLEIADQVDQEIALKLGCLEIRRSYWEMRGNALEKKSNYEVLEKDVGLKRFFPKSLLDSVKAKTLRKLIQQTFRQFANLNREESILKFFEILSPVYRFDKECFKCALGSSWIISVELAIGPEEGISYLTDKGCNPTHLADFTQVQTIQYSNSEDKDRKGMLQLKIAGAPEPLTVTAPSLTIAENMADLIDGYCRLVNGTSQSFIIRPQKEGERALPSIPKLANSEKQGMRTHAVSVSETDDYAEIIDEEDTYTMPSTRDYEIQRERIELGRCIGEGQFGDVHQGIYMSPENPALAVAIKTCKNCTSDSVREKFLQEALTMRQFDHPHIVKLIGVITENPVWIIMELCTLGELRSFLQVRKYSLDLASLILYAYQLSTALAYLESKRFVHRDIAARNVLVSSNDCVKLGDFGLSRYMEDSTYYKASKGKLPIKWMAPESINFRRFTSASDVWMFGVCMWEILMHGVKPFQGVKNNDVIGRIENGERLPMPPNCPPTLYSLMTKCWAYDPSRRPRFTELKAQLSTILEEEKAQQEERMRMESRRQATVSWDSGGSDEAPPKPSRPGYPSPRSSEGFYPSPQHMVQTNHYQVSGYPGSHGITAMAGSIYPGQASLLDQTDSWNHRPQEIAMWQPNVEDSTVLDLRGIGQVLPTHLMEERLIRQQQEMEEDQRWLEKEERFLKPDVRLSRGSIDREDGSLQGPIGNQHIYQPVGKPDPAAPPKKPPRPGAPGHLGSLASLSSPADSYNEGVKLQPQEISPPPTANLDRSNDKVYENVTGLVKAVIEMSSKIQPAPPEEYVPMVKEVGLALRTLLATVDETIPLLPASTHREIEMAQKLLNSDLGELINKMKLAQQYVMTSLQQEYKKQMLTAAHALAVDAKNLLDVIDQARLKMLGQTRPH

SNU-668 cells = experiment: Cell proliferation inhibition, SNU-668 (CELL TITER-GLO); type: cell-based; conditions: Homo sapiens, SNU668, 96 h; SNU-668, 4 days
Experimental: (§1) • a. SNU-668 cells (catalog number: 00668, KCLB) or NUGC4 cells (catalog number: 0834, JCRB) were allowed to grow to 70%-80% confluence, the supernatant of the culture medium was pipetitted off, rinsed once with PBS and then pipetitted off; • b. To a 10 cm dish was added 1 mL of 0.25% trypsin, votexed to homogenity and then place into incubator for digestion for 2-3 min; • c. The culture dish is removed from the incubator added with 2-3 mL complete culture medium to terminate the digestion, pipetitted into a 15 mL centrifuge tube, and then centrifuged in centrifuge at 1000 rpm for 5 minutes; • d. The supernatant was pipetitted off, and the cells were resuspended in 1 mL of complete culture medium, and then counted; • e. 1000 cells were plated into each well of 96-well plate, and then cultured overnight in a cell incubator, 2) Cell Administration with Compounds • a. Compounds to be tested were dissolved and votexed to homogeneity; • b. Each compound was serielly diluted in 1:3 ratio from 1 mM stock solution to 9 gradient concentrations; • c. The plate seeded with cells was taken out from the incubator, pipetitted off culture medium, and then added slowly in each well with 100 μL fresh culture medium by multi-channel pipette. Wells are labeled by corresponding compounds and concentrations, and then gently added with 100 μL compound-containing culture medium along the well wall by multi-channel pipette; • d. After the addition to all wells, the plate was gently shaken to allow homogeneous spread of the compound, and then put back to the incubator, with time recorded;
(§2) 4 days after the addition of compounds, the culture medium was removed and mixed at 100 μL from each well with cell titer-glo testing liquid in 1:1 ratio. The mixture was incubated with shaking at room temperature for 10 min and then counted with Plate reader.

NUGC4 cells = experiment: Cell proliferation inhibition, NUGC4 (CELL TITER-GLO); type: cell-based; conditions: Homo sapiens, NUGC-4, 96 h; NUGC4, 4 days
Experimental: as §1, §2

[2] = FAK kinase, enzyme pre-incubation 15 minutes at 25° C.

C=CC(=O)N1CCC[C@@H](c2cccc(NCc3ccc(Nc4ncc(C(F)(F)F)c(Nc5ccccc5C(=O)NC)n4)cc3)c2)C1 [Compound 35, (S)-2-((2-((4-(((3-(1-acryloylpiperidin-3-yl)phenyl)amino)methyl)phenyl)amino)-5-(trifluoromethyl)pyrimidin-4-yl)amino)-N-methylbenzamide]
AUC(0-inf) ([1]; 5 mg/kg): 0.548 µM·h | AUC(0-t) ([1]; 5 mg/kg): 0.54 µM·h | Cmax ([1]; 5 mg/kg): 130 nM | Tmax ([1]; 5 mg/kg): 2.67 h | half-life ([1]; 5 mg/kg): 0.96 h | IC50 (FAK; [2]): 1.45 nM

C#CC(=O)N1CCCC(c2cccc(NCc3ccc(Nc4ncc(C(F)(F)F)c(Nc5ccccc5C(=O)NC)n4)cc3)c2)C1 (stereo not shown) [Compound 31]
IC50 (SNU-668 cells): < 10 nM | IC50 (NUGC4 cells): 20 nM

C=C(F)C(=O)N1CCCC(c2cccc(NCc3ccc(Nc4ncc(C(F)(F)F)c(Nc5ccccc5C(=O)NC)n4)cc3)c2)C1 (stereo not shown) [Compound 33, 2-((2-((4-(((3-(1-(2-fluoroacryloyl)piperidin-3-yl)phenyl)amino)methyl)phenyl)amino)-5-(trifluoromethyl)pyrimidin-4-yl)amino)-N-methylbenzamide]
IC50 (NUGC4 cells): 20 nM

C=CC(=O)N1CCC[C@H](c2cccc(NCc3ccc(Nc4ncc(C(F)(F)F)c(Nc5ccccc5C(=O)NC)n4)cc3)c2)C1 [Compound 34, (R)-2-((2-((4-(((3-(1-acryloylpiperidin-3-yl)phenyl)amino)methyl)phenyl)amino)-5-(trifluoromethyl)pyrimidin-4-yl)amino)-N-methylbenzamide]
IC50 (NUGC4 cells): 80 nM | IC50 (FAK; [2]): 1.27 nM

C=CC(=O)N1CCCC(c2cccc(NCc3ccc(Nc4ncc(C(F)(F)F)c(Nc5ccccc5C(=O)NCC)n4)cc3)c2)C1 (stereo not shown) [Compound 17, 2-((2-((4-(((3-(1-acryloylpiperidin-3-yl)phenyl)amino)methyl)phenyl)amino)-5-(trifluoromethyl)pyrimidin-4-yl)amino)-N-ethylbenzamide]
IC50 (SNU-668 cells): < 10 nM | IC50 (FAK; [2]): 6.13 nM

C=CC(=O)N1CCCC(c2cccc(NCc3ccc(Nc4ncc(C(F)(F)F)c(Nc5ccccc5S(=O)(=O)NC)n4)cc3)c2)C1 (stereo not shown) [Compound 30, 2-((2-((4-(((3-(1-acryloylpiperidin-3-yl)phenyl)amino)methyl)phenyl)amino)-5-(trifluoromethyl)pyrimidin-4-yl)amino)-N-methylbenzenesulfonamide]
IC50 (SNU-668 cells): 90 nM | IC50 (FAK; [2]): 3.75 nM

C=CC(=O)N1CCCC(c2cccc(NCc3ccc(Nc4ncc(C(F)(F)F)c(Nc5ccccc5P(C)(C)=O)n4)cc3)c2)C1 (stereo not shown) [Compound 10, 1-(3-(3-((4-((4-((2-(dimethylphosphoryl)phenyl)amino)-5-(trifluoromethyl)pyrimidin-2-yl)amino)benzyl)amino)phenyl)piperidin-1-yl)prop-2-en-1-one]
IC50 (FAK; [2]): 15.8 nM

C=CC(=O)N1CCCC(c2cccc(NCc3ccc(Nc4ncc(Cl)c(Nc5ccccc5C(=O)NC)n4)cc3)c2)C1 (stereo not shown) [Compound 15]
IC50 (SNU-668 cells): 110 nM

C=CC(=O)N1CCCC(c2cccc(NCc3ccc(Nc4ncc(C(F)(F)F)c(Nc5ccccc5C(=O)NC(C)C)n4)cc3)c2)C1 (stereo not shown) [Compound 18, 2-((2-((4-(((3-(1-acryloylpiperidin-3-yl)phenyl)amino)methyl)phenyl)amino)-5-(trifluoromethyl)pyrimidin-4-yl)amino)-N-isopropylbenzamide]
IC50 (SNU-668 cells): 140 nM | IC50 (FAK; [2]): 17.9 nM

C=CC(=O)N1CCC[C@H](c2cccc(NCc3ccc(Nc4ncc(C(F)(F)F)c(Nc5ccccc5C(=O)NOC)n4)cc3)c2)C1 [Compound 36, (R) 2-((2-((4-(((3-(1-acryloylpiperidin-3-yl)phenyl)amino)methyl)phenyl)amino)-5-(trifluoromethyl)pyrimidin-4-yl)amino)-N-methoxybenzamide]
IC50 (NUGC4 cells): 90 nM | AUC(0-inf) ([1]; 3 mg/kg): 0.711 µM·h | AUC(0-t) ([1]; 3 mg/kg): 0.689 µM·h | Cmax ([1]; 3 mg/kg): 146 nM | Tmax ([1]; 3 mg/kg): 2.67 h | half-life ([1]; 3 mg/kg): 1.2 h | IC50 (FAK; [2]): 0.97 nM

C=CC(=O)N1CCCC(c2cccc(NCc3ccc(Nc4ncc(C(F)(F)F)c(Nc5cccc6c5C(=O)N(C)C6)n4)cc3)c2)C1 (stereo not shown) [Compound 20, 7-((2-((4-(((3-(1-acryloylpiperidin-3-yl)phenyl)amino)methyl)phenyl)amino)-5-(trifluoromethyl)pyrimidin-4-yl)amino)-2-methylisoindolin-1-one]
IC50 (NUGC4 cells): 340 nM | IC50 (FAK; [2]): 4.98 nM

C=CC(=O)N1CCCC(c2cccc(NCc3ccc(Nc4ncc(C(F)(F)F)c(NCc5nccnc5N(C)S(C)(=O)=O)n4)cc3)c2)C1 (stereo not shown) [Compound 14, N-(3-(((2-((4-(((3-(1-acryloylpiperidin-3-yl)phenyl)amino)methyl)phenyl)amino)-5-(trifluoromethyl)pyrimidin-4-yl)amino)methyl)pyrazin-2-yl)-N-methylmethanesulfonamide]
IC50 (FAK; [2]): 4.36 nM

C=CC(=O)N1CCC[C@@H](c2cccc(NCc3ccc(Nc4ncc(C(F)(F)F)c(Nc5ccccc5C(=O)NOC)n4)cc3)c2)C1 [Compound 37, (S) 2-((2-((4-(((3-(1-acryloylpiperidin-3-yl)phenyl)amino)methyl)phenyl)amino)-5-(trifluoromethyl)pyrimidin-4-yl)amino)-N-methoxybenzamide]
IC50 (NUGC4 cells): 120 nM | AUC(0-inf) ([1]; 3 mg/kg): 0.368 µM·h | AUC(0-t) ([1]; 3 mg/kg): 0.361 µM·h | Cmax ([1]; 3 mg/kg): 87.2 nM | Tmax ([1]; 3 mg/kg): 2.67 h | half-life ([1]; 3 mg/kg): 1.07 h | IC50 (FAK): 1.35 nM

CC#CC(=O)N1CCCC(c2cccc(NCc3ccc(Nc4ncc(C(F)(F)F)c(Nc5ccccc5C(=O)NC)n4)cc3)c2)C1 (stereo not shown) [Compound 21, 2-((2-((4-(((3-(1-(2-butynoyl)piperidin-3-yl)phenyl)amino)methyl)phenyl)amino)-5-(trifluoromethyl)pyrimidin-4-yl)amino)-N-methylbenzamide]
IC50 (NUGC4 cells): 40 nM | IC50 (FAK; [2]): 4.33 nM

C=CC(=O)N1CCC(CNC(=O)c2ccc(Nc3ncc(C(F)(F)F)c(Nc4ccccc4P(C)(C)=O)n3)cc2)CC1 [Compound 7, N-((1-acryloylpiperidin-4-yl)methyl)-4-((4-((2-(dimethylphosphoryl)phenyl)amino)-5-(trifluoromethyl)pyrimidin-2-yl)amino)benzamide]
IC50 (FAK; [2]): 3.58 nM

C=CC(=O)N1CCC(CNC(=O)c2ccc(Nc3ncc(C(F)(F)F)c(Nc4ccccc4P(C)(C)=O)n3)c(OC)c2)CC1 [Compound 8, N-((1-acryloylpiperidin-4-yl)methyl)-4-((4-((2-(dimethylphosphoryl)phenyl)amino)-5-(trifluoromethyl)pyrimidin-2-yl)amino)-3-methoxybenzamide]
IC50 (FAK; [2]): 5.79 nM

C/C=C/C(=O)N1CCCC(c2cccc(NCc3ccc(Nc4ncc(C(F)(F)F)c(Nc5ccccc5C(=O)NC)n4)cc3)c2)C1 (stereo not shown) [Compound 32, (E)-2-((2-((4-(((3-(1-(but-2-enoyl)piperidin-3-yl)phenyl)amino)methyl)phenyl)amino)-5-(trifluoromethyl)pyrimidin-4-yl)amino)-N-methylbenzamide]
IC50 (NUGC4 cells): 40 nM | IC50 (FAK; [2]): 3.43 nM

C=CC(=O)N1CCCC(c2cccc(NCc3ccc(Nc4ncc(Br)c(Nc5ccccc5C(=O)NC)n4)cc3)c2)C1 (stereo not shown) [Compound 16, 2-((2-((4-(((3-(1-acryloylpiperidin-3-yl)phenyl)amino)methyl)phenyl)amino)-5-bromopyrimidin-4-yl)amino)-N-methylbenzamide]
IC50 (SNU-668 cells): 60 nM | IC50 (FAK; [2]): 6.73 nM

C=C(C)C(=O)N1CCCC(c2cccc(NCc3ccc(Nc4ncc(C(F)(F)F)c(Nc5ccccc5C(=O)NC)n4)cc3)c2)C1 (stereo not shown) [Compound 24, 2-((2-((4-(((3-(1-methylacryloylpiperidin-3-yl)phenyl)amino)methyl)phenyl)amino)-5-(trifluoromethyl)pyrimidin-4-yl)amino)-N-methylbenzamide]
IC50 (NUGC4 cells): 20 nM

C=CC(=O)N1CCC(NC(=O)c2ccc(Nc3ncc(C(F)(F)F)c(NCc4nccnc4N(C)S(C)(=O)=O)n3)c(OC)c2)CC1 [Compound 1, N-(1-acryloylpiperidin-4-yl)-3-methoxy-4-((4-(((3-(N-methylmethanesulfonylamido)pyrazin-2-yl)methyl)amino)-5-(trifluoromethyl)pyrimidin-2-yl)amino)benzamide]
IC50 (FAK; [2]): 1.13 nM
